Results: US20240368139A1, “NOVEL MODULATORS OF EHMT1 AND EHMT2 AND THERAPEUTIC USE THEREOF” (Tango Therapeutics, Inc., priority 2021, published 2024)
pIC50: −log10 of the molar value. Read-outs that look alike come from different tables or passages of the source.

What was measured:
H3K9me2 in HCT116 cells = test: HCT116 H3K9me2 in-cell western assay; format: cell-based; conditions: Homo sapiens, read-out: H3K9me2 ICW IC50
Summary of the method: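 HCT116 cells (2,000/well) were treated for 72 h at 37° C, 5% CO2, with ten two-fold dilutions from 10 μM in duplicate. After PFA fixation, cells were stained overnight at 4° C with anti-H3K9me2, then with an 800 CW secondary plus DRAQ5.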

hERG potassium channels = hERG potassium channels (Homo sapiens, UniProt Q12809); test: In vitro hERG assay (SyncroPatch whole-cell recording); conditions: room temperature
human EHMT1 982-1266 = molecular target: T1, human EHMT1 982-1266 (Homo sapiens, UniProt Q9H9B1); test: EHMT1 enzyme assay on histone peptide substrate (3H-SAM SPA); conditions: EHMT1 IC50, recombinant human EHMT1 982-1266, histone peptide substrate
T1 sequence (Q9H9B1 982-1266): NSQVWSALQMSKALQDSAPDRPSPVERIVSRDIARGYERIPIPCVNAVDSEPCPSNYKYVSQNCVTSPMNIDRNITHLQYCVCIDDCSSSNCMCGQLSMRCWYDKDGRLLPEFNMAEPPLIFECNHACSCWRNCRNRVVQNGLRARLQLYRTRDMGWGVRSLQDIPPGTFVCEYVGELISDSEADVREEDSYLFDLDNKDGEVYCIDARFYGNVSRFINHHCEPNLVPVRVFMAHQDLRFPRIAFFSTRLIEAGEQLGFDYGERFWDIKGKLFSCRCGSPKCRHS

human EHMT2 913-1193 = molecular target: T2, human EHMT2 913-1193 (Homo sapiens, UniProt Q96KQ7); test: EHMT2 enzyme assay on histone peptide substrate (3H-SAM SPA); conditions: EHMT2 IC50, recombinant human EHMT2 913-1193, histone peptide substrate
T2 sequence (Q96KQ7 913-1193): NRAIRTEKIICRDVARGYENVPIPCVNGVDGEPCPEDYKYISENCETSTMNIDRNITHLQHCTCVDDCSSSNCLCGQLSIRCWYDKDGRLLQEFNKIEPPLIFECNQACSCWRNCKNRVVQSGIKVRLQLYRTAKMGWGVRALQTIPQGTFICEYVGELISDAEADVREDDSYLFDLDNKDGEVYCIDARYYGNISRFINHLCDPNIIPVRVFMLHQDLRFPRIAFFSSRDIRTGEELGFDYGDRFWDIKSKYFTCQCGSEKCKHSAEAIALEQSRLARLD

[1] = HCT-116, 72 h, HCT116 cells, 72 hours incubation
[2] = hERG IC50, CHO cells stably expressing hERG

Sequence of hERG potassium channels (Q12809 whole entry): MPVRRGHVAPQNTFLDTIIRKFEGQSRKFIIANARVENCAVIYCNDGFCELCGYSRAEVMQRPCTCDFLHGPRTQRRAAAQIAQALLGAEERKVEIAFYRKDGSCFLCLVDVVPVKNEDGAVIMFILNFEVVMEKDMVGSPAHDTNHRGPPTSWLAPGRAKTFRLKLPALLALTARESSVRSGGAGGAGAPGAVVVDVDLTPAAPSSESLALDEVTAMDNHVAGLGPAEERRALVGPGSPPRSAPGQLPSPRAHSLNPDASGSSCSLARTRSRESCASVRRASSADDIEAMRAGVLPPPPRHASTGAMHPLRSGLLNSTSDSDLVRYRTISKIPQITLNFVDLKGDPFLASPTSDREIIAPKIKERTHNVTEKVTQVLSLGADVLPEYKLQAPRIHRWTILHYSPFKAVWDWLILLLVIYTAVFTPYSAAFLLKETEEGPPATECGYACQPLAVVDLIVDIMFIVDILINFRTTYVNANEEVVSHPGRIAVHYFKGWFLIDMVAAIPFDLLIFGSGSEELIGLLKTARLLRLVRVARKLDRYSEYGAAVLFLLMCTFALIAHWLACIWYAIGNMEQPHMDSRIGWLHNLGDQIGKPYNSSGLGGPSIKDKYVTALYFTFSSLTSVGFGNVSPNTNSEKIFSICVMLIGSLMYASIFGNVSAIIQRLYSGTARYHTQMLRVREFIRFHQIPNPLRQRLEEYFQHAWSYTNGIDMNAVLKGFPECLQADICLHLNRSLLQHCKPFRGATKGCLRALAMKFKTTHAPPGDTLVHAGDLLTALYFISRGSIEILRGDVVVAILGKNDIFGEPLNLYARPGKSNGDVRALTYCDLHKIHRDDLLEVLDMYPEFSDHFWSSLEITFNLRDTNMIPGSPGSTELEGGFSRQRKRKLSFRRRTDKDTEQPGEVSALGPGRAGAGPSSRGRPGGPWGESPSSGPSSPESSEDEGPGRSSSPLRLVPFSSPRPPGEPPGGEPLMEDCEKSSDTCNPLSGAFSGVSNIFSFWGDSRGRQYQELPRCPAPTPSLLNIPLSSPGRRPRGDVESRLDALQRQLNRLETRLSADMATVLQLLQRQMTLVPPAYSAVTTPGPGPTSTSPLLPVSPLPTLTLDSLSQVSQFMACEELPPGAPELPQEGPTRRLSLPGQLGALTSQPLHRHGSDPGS

Row | SMILES | pIC50 (H3K9me2 in HCT116 cells; [1]) | pIC50 (human EHMT1 982-1266) | pIC50 (human EHMT2 913-1193) | pIC50 (hERG potassium channels; hERG IC50, SyncroPatch) | pIC50 (hERG potassium channels; [2]) | pIC50 (H3K9me2 in HCT116 cells; HCT-116, 72 h) | pIC50 (H3K9me2 in HCT116 cells; HCT-116, HCT116 cells, 72 hours incubation)
1 | CNc1cc(C)nc(Nc2cc3c(c(C4=C[C@H]5CNC[C@H]5C4)c2)OCCO3)n1 (racemic) [Compound 134, N2-[5-(1,2,3,3a,6,6a-hexahydrocyclopenta[c]pyrrol-5-yl)-2,3-dihydro-1,4-benzodioxin-7-yl]-N4,6-dimethyl-pyrimidine-2,4-diamine] | 6.30 to 7.00 | 6.30 to 7.00 | 6.30 to 7.00 | < 5.00 |  |  | 
2 | CNc1cc(C)nc(Nc2cc3c(c(C4=CCNCC(F)C4)c2F)OCC3)n1 (single isomer, unassigned) [Compound 167] | > 7.00 | > 7.00 | > 7.00 | 5.00 to 5.30 |  |  | 
3 | CNc1cc(C)nc(Nc2cc3c(c(C4=CCNCCC4)c2F)OCC3C)n1 (single isomer, unassigned) [Compound 169] | > 7.00 | > 7.00 | > 7.00 | 5.00 to 5.30 |  |  | 
4 | CNc1cc(C)nc(Nc2cc3c(c(C4=CCNCCC4)c2F)OCC3C)n1 (single isomer, unassigned) [Compound 170] |  |  |  | > 5.70 |  |  | 
5 | CNc1cc(C)nc(Nc2cc3c(c(C4=CCNC(C)CC4)c2F)OCC3)n1 (single isomer, unassigned) [Compound 183] | > 7.00 | > 7.00 | > 7.00 | < 5.00 |  |  | 
6 | CNc1cc(C)nc(Nc2cc3c(c(OCCCN4CCCC4)c2)OCC3)n1 [Compound 103, N^4,6-dimethyl-N^2-[7-(3-pyrrolidin-1-ylpropoxy)-2,3-dihydrobenzofuran-5-yl]pyrimidine-2,4-diamine] | 6.30 to 7.00 | 6.30 to 7.00 | 5.70 to 6.30 | < 5.00 |  |  | 
7 | CNc1cc(C)nc(Nc2cc3c(c(C4=CCNCCC4)c2)OCC3)n1 [Compound 110, N4,6-dimethyl-N2-[7-(2,3,4,7-tetrahydro-1H-azepin-5-yl)-2,3-dihydrobenzofuran-5-yl]pyrimidine-2,4-diamine] | > 7.00 | > 7.00 | > 7.00 | < 5.00 | < 5.00 |  | 
8 | CNc1cc(C)nc(Nc2cc3c(c(C4=CCNCCC4)c2F)OCC3)n1 [Compound 291, N2-[6-fluoro-7-(2,3,4,7-tetrahydro-1H-azepin-5-yl)-2,3-dihydrobenzofuran-5-yl]-N4,6-dimethyl-pyrimidine-2,4-diamine] | > 7.00 |  |  | < 5.00 | < 5.00 |  | 
9 | CCc1cc(NC)nc(Nc2cc3c(c(C4=CCN(C)CCC4)c2)OCC3)n1 [Compound 316] | 6.30 to 7.00 | > 7.00 | 6.30 to 7.00 |  |  |  | 
10 | CNc1cc(C2CC2)nc(Nc2cc3c(c(C4=CCNCCC4)c2)OCC3)n1 [Compound 317] | > 7.00 | > 7.00 | 6.30 to 7.00 |  |  |  | 
11 | Cc1cc(NC2CCC2)nc(Nc2cc3c(c(C4=CCN(C)CCC4)c2)OCC3)n1 [Compound 318] | 6.30 to 7.00 | 6.30 to 7.00 | 5.70 to 6.30 |  |  |  | 
12 | CCc1cc(NC)nc(Nc2cc3c(c(C4=CCNCCC4)c2)OCC3)n1 [Compound 319] | > 7.00 | > 7.00 | > 7.00 |  |  |  | 
13 | Cc1cc(NCC(F)(F)F)nc(Nc2cc3c(c(C4=CCN(C)CCC4)c2)OCC3)n1 [Compound 320] | 6.30 to 7.00 | 6.30 to 7.00 | 5.70 to 6.30 |  |  |  | 
14 | CCNc1cc(C)nc(Nc2cc3c(c(C4=CCN(C)CCC4)c2)OCC3)n1 [Compound 321] | 6.30 to 7.00 | > 7.00 | 6.30 to 7.00 |  |  |  | 
15 | CNc1cc(C)nc(Nc2cc3c(c(C4=CCN(C)CCC4)c2)CCO3)n1 [Compound 333] | 5.70 to 6.30 | 6.30 to 7.00 | 5.70 to 6.30 |  |  |  | 
16 | CNc1cc(C)nc(Nc2cc3c(c(N4C[C@H]5CNC[C@H]5C4)c2)OCCC3)n1 [Compound 338] | 6.30 to 7.00 | 6.30 to 7.00 | 5.70 to 6.30 |  |  |  | 
17 | CNc1cc(C)nc(Nc2cc3c(c(N4CCCNCC4)c2)OCCC3)n1 [Compound 339] | 6.30 to 7.00 | 6.30 to 7.00 | 5.70 to 6.30 |  |  |  | 
18 | CNc1cc(C)nc(Nc2cc3c(c(C4C[C@H]5CNC[C@H]5C4)c2)OCCC3)n1 (stereo partly shown) [Compound 340] | 6.30 to 7.00 | > 7.00 | 6.30 to 7.00 |  |  |  | 
19 | CNc1cc(C)nc(Nc2cc3c(c([C@H]4C[C@H]5CNC[C@H]5C4)c2)OCO3)n1 [Compound 342] | 5.70 to 6.30 | 6.30 to 7.00 | 5.70 to 6.30 |  |  |  | 
20 | CNc1cc(C)nc(Nc2cc3c(c(C4=CCNCC4)c2)OCCC3)n1 [Compound 345] | 6.30 to 7.00 | 6.30 to 7.00 | 5.70 to 6.30 |  |  |  | 
21 | CNc1cc(C)nc(Nc2ccc(OC)c(C3=CCN(C)CCC3)c2)n1 [Reference Compound A, reference compound] |  | > 7.00 |  | 5.00 to 5.30 | 5.00 to 5.30 | > 7.00 | 
22 | CNc1cc(C)nc(Nc2ccc(OC)c(C3=CCNCCC3)c2)n1 [Reference Compound B, reference compound] |  |  | > 7.00 | 5.00 to 5.30 | 5.00 to 5.30 |  | > 7.00

Now from value to compound, other results behind:

Row | pIC50 (H3K9me2 in HCT116 cells; [1]) | pIC50 (human EHMT1 982-1266) | pIC50 (human EHMT2 913-1193) | SMILES | pIC50 (hERG potassium channels; hERG IC50, SyncroPatch) | pIC50 (hERG potassium channels; [2]) | pIC50 (H3K9me2 in HCT116 cells; HCT-116, 72 h) | pIC50 (H3K9me2 in HCT116 cells; HCT-116, HCT116 cells, 72 hours incubation)
23 | > 7.00 | > 7.00 | > 7.00 | CNc1cc(C)nc(Nc2cc3c(c(C4=CCNC(C)CC4)c2Cl)OCCC3)n1 (single isomer, unassigned) [Compound 357] | 5.00 to 5.30 |  |  | 
24 | > 7.00 | > 7.00 | > 7.00 | CNc1cc(C)nc(Nc2cc3c(c(C4=CCNC(C)CC4)c2F)OCO3)n1 (single isomer, unassigned) [Compound 369] | 5.00 to 5.30 |  |  | 
25 |  | > 7.00 | > 7.00 | CNc1cc(C)nc(Nc2cc3c(c(C4=CCNCC(O)C4)c2C)OCC3)n1 (single isomer, unassigned) [Compound 370] | < 5.00 |  |  | 
26 | > 7.00 | > 7.00 | > 7.00 | CNc1cc(C)nc(Nc2cc3c(c(C4=CCNCC(O)C4)c2F)OCC3)n1 (single isomer, unassigned) [Compound 373] | < 5.00 |  |  | 
27 | > 7.00 | > 7.00 | > 7.00 | CNc1cc(C)nc(Nc2cc3c(c(C4=CCNC(C)CC4)c2Cl)OCC3)n1 (single isomer, unassigned) [Compound 374] | < 5.00 |  |  | 
28 |  |  | > 7.00 | CNc1cc(C)nc(Nc2cc3c(c(C4=CCNCC(O)C4)c2Cl)OCC3)n1 (single isomer, unassigned) [Compound 384] | < 5.00 |  |  | 
29 | 6.30 to 7.00 | 6.30 to 7.00 | 5.70 to 6.30 | CNc1cc(C)nc(Nc2cc3c(c(C4CCCNCC4)c2)OCO3)n1 (stereo not shown) [Compound 343] |  |  |  | 
30 | 6.30 to 7.00 | 6.30 to 7.00 | 5.70 to 6.30 | CNc1cc(C)nc(Nc2cc3c(c(C4=C[C@H]5CNC[C@H]5C4)c2)OCCC3)n1 [Compound 344] |  |  |  | 
31 | 6.30 to 7.00 | 6.30 to 7.00 | < 5.70 | CNc1cc(C)nc(Nc2cc3c(c(C4=CCC(N)CC4)c2)OCCC3)n1 (stereo not shown) [Compound 346] |  |  |  | 
32 | 6.30 to 7.00 | 6.30 to 7.00 | 5.70 to 6.30 | CNc1cc(C)nc(Nc2cc3c(c(C4=C[C@H]5CNC[C@H]5C4)c2)OCO3)n1 [Compound 347] |  |  |  | 
33 | 6.30 to 7.00 | > 7.00 | 6.30 to 7.00 | CNc1cc(C)nc(Nc2cc3c(c(N4C[C@H]5CNC[C@H]5C4)c2F)OCC3)n1 [Compound 351, N2-[6-fluoro-7-[rac-(3aS,6aR)-2,3,3a,4,6,6a-hexahydro-1H-pyrrolo[3,4-c]pyrrol-5-yl]-2,3-dihydrobenzofuran-5-yl]-N4,6-dimethyl-pyrimidine-2,4-diamine] |  |  |  | 
34 | > 7.00 | > 7.00 | > 7.00 | CNc1cc(C)nc(Nc2cc3c(c(C4=CCNCCC4)c2C)OCCC3)n1 [Compound 353, N4,6-dimethyl-N2-[7-methyl-8-(2,3,4,7-tetrahydro-1H-azepin-5-yl)chroman-6-yl]pyrimidine-2,4-diamine] |  |  |  | 
35 | > 7.00 | > 7.00 | 6.30 to 7.00 | CNc1cc(C)nc(Nc2cc3c(c(C4=CCNCCC4)c2C)OCO3)n1 [Compound 363] |  |  |  | 
36 | 6.30 to 7.00 | 5.70 to 6.30 | 5.70 to 6.30 | CNc1cc(C)nc(Nc2cc3c(c(C4C[C@H]5CNC[C@H]5C4)c2F)OCC3)n1 (stereo partly shown) [Compound 437, N2-[7-(1,2,3,3a,4,5,6,6a-octahydrocyclopenta[c]pyrrol-5-yl)-6-fluoro-2,3-dihydrobenzofuran-5-yl]-N4,6-dimethyl-pyrimidine-2,4-diamine] |  |  |  | 
